Measurements reported in ChEMBL document CHEMBL1201862, “PubChem BioAssay data set” (2004).
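Grown in 96-well plates, cells were treated for 48 hours with each compound at five concentrations. Insufficient inhibition: endpoint recorded as highest concentration tested. Abbreviation: GI50, concentration required for 50% inhibition of growth.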 Active and inactive are the calls of the source. Rule as the data show it: active = GI50 up to about 1.1 µM and inactive = higher.

Experiments:
Assay in all cases: NCI anticancer screen, dose series, 48 h
KM12 = tested on: KM12
HOP-92 = tested on: HOP-92
MDA-MB-435 = tested on: MDA-MB-435
SF-539 = tested on: SF-539
PC-3 = tested on: PC-3
SK-OV-3 = tested on: SK-OV-3
Hs-578T = tested on: Hs-578T
OVCAR-3 = tested on: OVCAR-3
K562 = tested on: K562
RPMI-8226 = tested on: RPMI-8226
UO-31 = tested on: UO-31
IGROV-1 = tested on: IGROV-1
NCI-H460 = tested on: NCI-H460
SK-MEL-2 = tested on: SK-MEL-2
TK-10 = tested on: TK-10
786-0 = tested on: 786-0
SNB-75 = tested on: SNB-75
NCI-H226 = tested on: NCI-H226
A498 = tested on: A498
HOP-62 = tested on: HOP-62

SMILES	GI50 (KM12)	GI50 (HOP-92)	GI50 (MDA-MB-435)	GI50 (SF-539)	GI50 (PC-3)	GI50 (SK-OV-3)	GI50 (Hs-578T)	GI50 (OVCAR-3)	GI50 (K562)	GI50 (RPMI-8226)	GI50 (UO-31)	GI50 (IGROV-1)	GI50 (NCI-H460)	GI50 (SK-MEL-2)	GI50 (TK-10)	GI50 (786-0)	GI50 (SNB-75)	GI50 (NCI-H226)	GI50 (A498)	GI50 (HOP-62)
CCOC(=O)C1Cc2c(cc3c4c(cccc24)N(C(C)=O)C3)N(C)C1 (stereo not given)	4.17 µM (inactive)	1.65 µM (inactive)	2.56 µM (inactive)	3.18 µM (inactive)	4.02 µM (inactive)	71.8 µM (inactive)	2.49 µM (inactive)	1.44 µM (inactive)	4.39 µM (inactive)	> 100 µM (inactive)	1.07 µM (active)	5.83 µM (inactive)	> 100 µM (inactive)	> 100 µM (inactive)	> 100 µM (inactive)	4.03 µM (inactive)	24.2 µM (inactive)	2.9 µM (inactive)	> 100 µM (inactive)	> 100 µM (inactive)
Cc1oc2c(c1C)S(=O)(=O)C(C#N)=CN2	> 100 µM (inactive)	> 100 µM (inactive)	> 100 µM (inactive)	> 100 µM (inactive)	> 100 µM (inactive)	> 100 µM (inactive)	> 100 µM (inactive)	> 100 µM (inactive)	> 100 µM (inactive)	> 100 µM (inactive)	> 100 µM (inactive)	> 100 µM (inactive)	> 100 µM (inactive)	> 100 µM (inactive)	> 100 µM (inactive)	> 100 µM (inactive)	65.3 µM (inactive)	> 100 µM (inactive)	> 100 µM (inactive)	> 100 µM (inactive)
COc1cccc(Nc2nc(N)nc(N)c2N)c1	> 100 µM (inactive)	> 100 µM (inactive)	39.7 µM (inactive)	40.8 µM (inactive)	99.8 µM (inactive)	> 100 µM (inactive)	> 100 µM (inactive)	42.8 µM (inactive)	37.2 µM (inactive)	24.9 µM (inactive)	> 100 µM (inactive)	35.1 µM (inactive)	20 µM (inactive)	> 100 µM (inactive)	> 100 µM (inactive)	39.7 µM (inactive)	> 100 µM (inactive)	> 100 µM (inactive)	> 100 µM (inactive)	29.3 µM (inactive)
CC(C)=CCC[C@@H](C)C1=C(O)C(=O)C(C)=C(N[C@H](C)c2ccccc2)C1=O	6.3 µM (inactive)	6.14 µM (inactive)	7.1 µM (inactive)	3.11 µM (inactive)	10.9 µM (inactive)	3.84 µM (inactive)	6.12 µM (inactive)	5.36 µM (inactive)	6.64 µM (inactive)	6.31 µM (inactive)	4.27 µM (inactive)	3.8 µM (inactive)	2.75 µM (inactive)	10.2 µM (inactive)	8.17 µM (inactive)	3.66 µM (inactive)	2.53 µM (inactive)	4.27 µM (inactive)	3.91 µM (inactive)	2.92 µM (inactive)
